Toxic doses and inconclusive results are not listed. Cut-off read from the data, not from the text of the source: active = T/C of 150% or more; inactive = T/C below 125%.
Tested on: L1210 leukemia ip in BDF1 mice, survival T/C
Test: NCI In Vivo Anticancer Drug Screen. Data for tumor model L1210 Leukemia (intraperitoneal) in B6D2F1 (BDF1) mice
Settings: endpoint: mean survival time, higher = longer survival
In short: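 Read-out is survival time, reported as the treated-group measurement over the vehicle-control measurement.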

[1] = dose: 100.0 mg/kg/injection, schedule: Q01DX001 (ip), vehicle: carboxymethylcellulose (CMC)
[2] = dose: 200.0 mg/kg/injection, schedule: Q01DX001 (ip), vehicle: carboxymethylcellulose (CMC)
[3] = dose: 100.0 mg/kg/injection, schedule: Q04DX002 (ip), vehicle: saline with Tween-80
[4] = dose: 200.0 mg/kg/injection, schedule: Q04DX002 (ip), vehicle: saline with Tween-80
[5] = dose: 400.0 mg/kg/injection, schedule: Q04DX002 (ip), vehicle: saline with Tween-80
[6] = dose: 100.0 mg/kg/injection, schedule: Q01DX009 (ip), vehicle: Klucel (hydroxypropylcellulose) (HPC)
[7] = dose: 100.0 mg/kg/injection, schedule: Q04DX003 (ip), vehicle: Klucel (hydroxypropylcellulose) (HPC)
[8] = dose: 200.0 mg/kg/injection, schedule: Q01DX009 (ip), vehicle: Klucel (hydroxypropylcellulose) (HPC)
[9] = dose: 200.0 mg/kg/injection, schedule: Q04DX003 (ip), vehicle: Klucel (hydroxypropylcellulose) (HPC)
[10] = dose: 400.0 mg/kg/injection, schedule: Q01DX009 (ip), vehicle: Klucel (hydroxypropylcellulose) (HPC)
[11] = dose: 400.0 mg/kg/injection, schedule: Q04DX003 (ip), vehicle: Klucel (hydroxypropylcellulose) (HPC)
[12] = dose: 100.0 mg/kg/injection, schedule: Q04DX003 (ip), vehicle: saline with Tween-80
[13] = dose: 200.0 mg/kg/injection, schedule: Q04DX003 (ip), vehicle: saline with Tween-80
[14] = dose: 400.0 mg/kg/injection, schedule: Q04DX003 (ip), vehicle: saline with Tween-80
[15] = dose: 100.0 mg/kg/injection, schedule: Q01DX009 (ip), vehicle: saline with Tween-80
[16] = dose: 200.0 mg/kg/injection, schedule: Q01DX009 (ip), vehicle: saline with Tween-80
[17] = dose: 400.0 mg/kg/injection, schedule: Q01DX009 (ip), vehicle: saline with Tween-80
[18] = dose: 100.0 mg/kg/injection, schedule: Q04DX002 (ip), vehicle: Klucel (hydroxypropylcellulose) (HPC)
[19] = dose: 200.0 mg/kg/injection, schedule: Q04DX002 (ip), vehicle: Klucel (hydroxypropylcellulose) (HPC)

Measured: T/C

NC(N)=N/N=C\c1c[nH]c2ccccc12
inactive: dose: 15.0 mg/kg/injection, schedule: Q01DX Z (ip), vehicle: carboxymethylcellulose (CMC) 102 % of control | dose: 30.0 mg/kg/injection, schedule: Q01DX Z (ip), vehicle: carboxymethylcellulose (CMC) 103 % of control | dose: 30.0 mg/kg/injection, schedule: Q01DX Z (oral), vehicle: carboxymethylcellulose (CMC) 89 % of control | dose: 60.0 mg/kg/injection, schedule: Q01DX Z (ip), vehicle: carboxymethylcellulose (CMC) 100 % of control | dose: 60.0 mg/kg/injection, schedule: Q01DX Z (oral), vehicle: carboxymethylcellulose (CMC) 92 % of control | dose: 120.0 mg/kg/injection, schedule: Q01DX Z (oral), vehicle: carboxymethylcellulose (CMC) 96 % of control | dose: 240.0 mg/kg/injection, schedule: Q01DX Z (oral), vehicle: carboxymethylcellulose (CMC) 96 % of control

c1ccc2c(c1)CCC1NC21 (stereo not given)
inactive: [1] 103 % of control | [2] 105 % of control

COc1nc(Cl)nc2c1c(C#N)cn2C1OC(CO)C(O)C1O (stereo not given)
inactive: dose: 100.0 mg/kg/injection, schedule: Q01DX005 (ip), vehicle: saline 113 % of control

Nc1cccc(CO)c1
inactive: [3] 104 % of control | [4] 90 % of control | [5] 90 % of control

CCOC(=O)NNC(=O)c1ccccc1N(C)C
inactive: [6] 94 % of control | [7] 101 % of control | [8] 91 % of control | [9] 101 % of control | [10] 97 % of control | [11] 95 % of control

CCOc1ccc(NC2CNC(=O)NC2=O)cc1 (stereo not given)
inactive: dose: 200.0 mg/kg/injection, schedule: Q01DX Z (ip), vehicle: methylcellulose (MC) 91 % of control

COC1OC(COC(=O)c2ccccc2)C(OC(=O)N(C)c2ccccc2)C1OC (stereo not given)
inactive: [12] 98 % of control | [13] 92 % of control | [14] 95 % of control

CCCCOC(=O)/C=C/C(=O)OCCCC
inactive: [15] 97 % of control | [16] 101 % of control | [17] 111 % of control

COC(=O)CCCCCCCC(=O)OCC#CC#CCOC(=O)CCCCCCCC(=O)OC
inactive: [6] 95 % of control | [7] 107 % of control | [8] 90 % of control | [9] 94 % of control | [10] 95 % of control | [11] 91 % of control

Cc1ccc(C)c(NC(=O)Nc2ccc(Cl)cc2)c1
inactive: dose: 100.0 mg/kg/injection, schedule: Q01DX009 (ip), vehicle: gum acacia 96 % of control | dose: 100.0 mg/kg/injection, schedule: Q04DX003 (ip), vehicle: gum acacia 98 % of control | dose: 200.0 mg/kg/injection, schedule: Q01DX009 (ip), vehicle: gum acacia 100 % of control | dose: 200.0 mg/kg/injection, schedule: Q04DX003 (ip), vehicle: gum acacia 90 % of control | dose: 400.0 mg/kg/injection, schedule: Q01DX009 (ip), vehicle: gum acacia 96 % of control | dose: 400.0 mg/kg/injection, schedule: Q04DX003 (ip), vehicle: gum acacia 95 % of control

O=C(CCCN1CCC2(CC1)OC(=O)N(c1ccccc1)C2=O)c1ccc(F)cc1
inactive: [7] 89 % of control | [9] 106 % of control

CC(=O)Oc1ccc(C2C3=C(COC3=O)CC3=C2C(=O)OC3)cc1
inactive: [15] 104 % of control | [12] 96 % of control | [16] 100 % of control | [13] 97 % of control | [17] 96 % of control | [14] 96 % of control

COc1ccc(C(=O)/C=C/c2cccc3ccccc23)cc1
inactive: [3] 86 % of control | [4] 86 % of control | [5] 86 % of control

Cc1cc2c(c(=O)n1C)COC2=O
inactive: dose: 100.0 mg/kg/injection, schedule: Q04DX003 (ip), vehicle: other 100 % of control | dose: 200.0 mg/kg/injection, schedule: Q04DX003 (ip), vehicle: other 100 % of control | dose: 400.0 mg/kg/injection, schedule: Q04DX003 (ip), vehicle: other 98 % of control

COC(=O)c1ccccc1-n1c(-c2ccc([N+](=O)[O-])cc2)csc1=NC(=O)c1cccc([N+](=O)[O-])c1
inactive: [6] 91 % of control | [18] 92 % of control | [8] 91 % of control | [19] 95 % of control | [10] 88 % of control | dose: 400.0 mg/kg/injection, schedule: Q04DX002 (ip), vehicle: Klucel (hydroxypropylcellulose) (HPC) 100 % of control

CC(=O)OC1CCC2(C)C(=CCC3C2CCC2(C)C3CC3OC4(CCC(C)CN4C(C)=O)C(C)C32)C1 (stereo not given)
inactive: dose: 100.0 mg/kg/injection, schedule: Q01DX001 (ip), vehicle: saline with Tween-80 98 % of control | dose: 200.0 mg/kg/injection, schedule: Q01DX001 (ip), vehicle: saline with Tween-80 95 % of control | dose: 400.0 mg/kg/injection, schedule: Q01DX001 (ip), vehicle: saline with Tween-80 95 % of control

CCCC(CCC)NC(CC)COC(=O)c1ccc(N)cc1 (stereo not given)
inactive: dose: 75.0 mg/kg/injection, schedule: Q01DX001 (ip), vehicle: other 97 % of control

COc1cc2c(c(-c3c(O)c(OC)cc4c3CC[n+]3cc5c(OC)c(OC)ccc5cc3-4)c1O)CC[n+]1cc3c(OC)c(OC)ccc3cc1-2
inactive: dose: 50.0 mg/kg/injection, schedule: Q04DX002 (ip), vehicle: Klucel (hydroxypropylcellulose) (HPC) 100 % of control | [18] 108 % of control | [19] 100 % of control

CSc1ccc(OC(=O)Oc2ccc(SC)c(C)c2)cc1C
inactive: [1] 92 % of control | [2] 92 % of control | dose: 400.0 mg/kg/injection, schedule: Q01DX001 (ip), vehicle: carboxymethylcellulose (CMC) 97 % of control

CC1=C(C)Cc2c(-c3ccc(Cl)cc3)oc(-c3ccc(Cl)cc3)c2C1
inactive: [7] 100 % of control | [9] 97 % of control | [11] 94 % of control

c1ccc(-c2nn(-c3ccccc3)[n+](-c3cccc4ccccc34)n2)cc1
inactive: dose: 1.0 mg/kg/injection, schedule: Q01DX015 (ip), vehicle: carboxymethylcellulose (CMC) 100 % of control | dose: 2.0 mg/kg/injection, schedule: Q01DX015 (ip), vehicle: carboxymethylcellulose (CMC) 102 % of control | dose: 4.0 mg/kg/injection, schedule: Q01DX015 (ip), vehicle: carboxymethylcellulose (CMC) 102 % of control | dose: 8.0 mg/kg/injection, schedule: Q01DX015 (ip), vehicle: carboxymethylcellulose (CMC) 105 % of control

CCCCN(C(C)(C)C(SSSC(c1ccc(Cl)cc1)C(C)(C)N(CCCC)S(C)(=O)=O)c1ccc(Cl)cc1)S(C)(=O)=O (stereo not given)
inactive: [15] 96 % of control | [16] 86 % of control

Cc1ccc([N+](=O)[O-])cc1NC(=O)NCCO
inactive: dose: 100.0 mg/kg/injection, schedule: Q04DX003 (ip), vehicle: saline 106 % of control | dose: 200.0 mg/kg/injection, schedule: Q04DX003 (ip), vehicle: saline 106 % of control | dose: 400.0 mg/kg/injection, schedule: Q04DX003 (ip), vehicle: saline 103 % of control

From PubChem BioAssay AID248 (DTP/NCI, 2004)
